Calls of active or inactive are those of the source. The calls are words filed in the database; no cut-off is given here.
Columns and labels:
Type in all cases: functional
[1] = test system: Paracoccus denitrificans; assay: Antibacterial activity against Paracoccus denitrificans at 50 ug/ml after 24 hr by agar cup-plate method; conditions: read-out: DIZ
[2] = test system: Rhizopus arrhizus; assay: Antifungal activity against Rhizopus oryzae at 100 ug/ml after 48 hr by paper disk diffusion method; conditions: for zone of inhibition at 100 µg/mL: read-out: IZ
[3] = test system: Aspergillus flavus; assay: Antifungal activity against Aspergillus flavus at 100 ug/ml after 48 hr by paper disk diffusion method; conditions: read-out: IZ
[4] = test system: Aspergillus flavus; assay: Antifungal activity against Aspergillus flavus at 50 ug/ml after 48 hr by paper disk diffusion method; conditions: read-out: IZ
[5] = test system: Bacillus subtilis; assay: Antibacterial activity against Bacillus subtilis at 50 ug/ml after 24 hr by agar cup-plate method; conditions: read-out: DIZ
[6] = test system: Klebsiella aerogenes; assay: Antibacterial activity against Enterobacter aerogenesat 50 ug/ml after 24 hr by agar cup-plate method
[7] = test system: Aspergillus niger; assay: Antifungal activity against Aspergillus niger at 100 ug/ml after 48 hr by paper disk diffusion method; conditions: read-out: IZ
[8] = test system: Pseudomonas syringae; assay: Antibacterial activity against Pseudomonas syringae at 50 ug/ml after 24 hr by agar cup-plate method; conditions: read-out: DIZ
[9] = test system: Aspergillus niger; assay: Antifungal activity against Aspergillus niger at 50 ug/ml after 48 hr by paper disk diffusion method; conditions: read-out: IZ
[10] = test system: Rhizopus arrhizus; assay: Antifungal activity against Rhizopus oryzae at 50 ug/ml after 48 hr by paper disk diffusion method; conditions: for zone of inhibition at 50 µg/mL: read-out: IZ
[11] = test system: Klebsiella aerogenes; assay: Antibacterial activity against Enterobacter aerogenes at 4 ug/ml after 24 hr by agar cup-plate method; conditions: read-out: DIZ
[12] = test system: Pseudomonas syringae; assay: Antibacterial activity against Pseudomonas syringae at 4 ug/ml after 24 hr by agar cup-plate method; conditions: read-out: DIZ
[13] = test system: Bacillus subtilis; assay: Antibacterial activity against Bacillus subtilis at 4 ug/ml after 24 hr by agar cup-plate method; conditions: read-out: DIZ
[14] = test system: Paracoccus denitrificans; assay: Antibacterial activity against Paracoccus denitrificans at 4 ug/ml after 24 hr by agar cup-plate method; conditions: read-out: DIZ

Row | SMILES | zone of inhibition at 50 µg/mL [1] | inhibition zone (IZ) [2] | zone of inhibition at 100 µg/mL [3] | zone of inhibition at 50 µg/mL [4] | zone of inhibition at 50 µg/mL [5] | diameter of the inhibition zone (DIZ) [6] | zone of inhibition at 100 µg/mL [7] | zone of inhibition at 50 µg/mL [8] | zone of inhibition at 50 µg/mL [9] | inhibition zone (IZ) [10] | zone of inhibition at 100 µg/mL [2] | zone of inhibition at 50 µg/mL [10] | zone of inhibition at 4 µg/mL [11] | zone of inhibition at 4 µg/mL [12] | zone of inhibition at 4 µg/mL [13] | zone of inhibition at 4 µg/mL [14]
1 | Cc1ccccc1NC1=C(Cl)C(=O)C(Nc2ccccc2C)=C(Cl)C1=O | 3 mm | inactive | 3 mm | 3 mm | 3 mm | 3 mm | 3 mm | 3 mm | 3 mm | inactive | – | – | – | – | – | –
2 | O=C1C(Cl)=C(Nc2ccc(F)cc2)C(=O)C(Cl)=C1Nc1ccc(F)cc1 | 13 mm | – | 13 mm | 13 mm | > 21 mm | 10 mm | > 21 mm | 13 mm | 13 mm | – | 13 mm | 10 mm | – | – | – | –
3 | O=C1C(Cl)=C(Nc2ccccc2)C(=O)C(Cl)=C1Nc1ccccc1 | 10 mm | – | 3 mm | 3 mm | 3 mm | inactive | 10 mm | 10 mm | 3 mm | inactive | 3 mm | – | – | – | – | –
4 | CCn1cc(C(=O)O)c(=O)c2cc(F)c(N3CCNCC3)cc21 [NORFLOXACIN] | – | – | – | – | – | – | – | – | – | – | – | – | > 21 mm | > 21 mm | > 21 mm | 13 mm
5 | O=C1C(Cl)=C(Nc2ccc(Cl)cc2)C(=O)C(Cl)=C1Nc1ccc(Cl)cc1 | 10 mm | – | 13 mm | 10 mm | 10 mm | 13 mm | 10 mm | 10 mm | 10 mm | – | 10 mm | 3 mm | – | – | – | –
6 | O=C1C(Cl)=C(Nc2ccc(Br)cc2)C(=O)C(Cl)=C1Nc1ccc(Br)cc1 | 13 mm | – | 13 mm | 10 mm | 13 mm | 10 mm | > 21 mm | 10 mm | 10 mm | – | 13 mm | 3 mm | – | – | – | –
7 | O=C1C(Cl)=C(Nc2ccccc2F)C(=O)C(Cl)=C1Nc1ccccc1F | > 21 mm | – | 13 mm | 10 mm | > 21 mm | 13 mm | > 21 mm | 13 mm | 13 mm | – | 13 mm | 10 mm | – | – | – | –
8 | COC1=CC(=O)C[C@@H](C)[C@]12Oc1c(Cl)c(OC)cc(OC)c1C2=O [GRISEOFULVIN] | – | – | > 21 mm | > 21 mm | – | – | > 21 mm | – | > 21 mm | – | > 21 mm | > 21 mm | – | – | – | –
9 | Cc1ccc(NC2=C(Cl)C(=O)C(Nc3ccc(C)cc3)=C(Cl)C2=O)cc1 | 10 mm | inactive | 10 mm | 3 mm | 3 mm | inactive | 10 mm | 3 mm | 3 mm | inactive | – | – | – | – | – | –
10 | COc1ccc(NC2=C(Cl)C(=O)C(Nc3ccc(OC)cc3)=C(Cl)C2=O)cc1 | 13 mm | – | 13 mm | 10 mm | 10 mm | 3 mm | 10 mm | 10 mm | 3 mm | inactive | 3 mm | – | – | – | – | –
11 | COc1ccccc1NC1=C(Cl)C(=O)C(Nc2ccccc2OC)=C(Cl)C1=O | 13 mm | – | 10 mm | 3 mm | 3 mm | 10 mm | 13 mm | 3 mm | 10 mm | – | 10 mm | 3 mm | – | – | – | –
12 | O=C1C(Cl)=C(Nc2ccccc2Cl)C(=O)C(Cl)=C1Nc1ccccc1Cl | 13 mm | – | 13 mm | 10 mm | 13 mm | 10 mm | 13 mm | 10 mm | 10 mm | – | 13 mm | 10 mm | – | – | – | –

Source: ChEMBL document CHEMBL3044582, “Nontraditional approaches to the synthesis of some biologically active substituted p-benzoquinones” (2008)
